Experimental data: patent publication US8758816B2, “Compositions comprising azelastine and methods of use thereof” (priority 2004, dated 2014)
Counter-ions that a name gives are not always drawn.

Test system: patients with seasonal allergic rhinitis (SAR)
Experiment: MP 428 two-week randomized double-blind study: Total Nasal Symptom Score (TNSS), change from baseline
Format: in vivo, human
Set-up: key to Change from Baseline in AM TNSS, Mean / Change from Baseline in AM TNSS, LS Mean / Change from Baseline in AM TNSS, Median: TNSS sum of 4 symptoms each 0-3 (0=none, 3=severe); change from baseline
Procedure: A two-week, randomized, double-blind study, which evaluated the effects of the co-administration of ASTELIN® (azelastine hydrochloride (HCl)) and FLONASE® (fluticasone propionate) compared to either product alone in patients with seasonal allergic rhinitis (SAR) was conducted during the 2006 Texas mountain cedar season. After a 5-day placebo lead-in period, 151 patients with moderate-to-severe allergic rhinitis symptoms were randomized to either: (1) (49 total patients) ASTELIN® (azelastine hydrochloride (HCl)) plus placebo saline nasal spray 2 sprays per nostril, 15 minutes apart, twice daily (AM & PM); (2) (50 total patients) FLONASE® (fluticasone propionate) plus placebo saline nasal spray, 2 sprays per nostril, 15 minutes apart, once daily (AM) and two sessions of placebo saline nasal spray, 2 sprays per nostril, 15 minutes apart (PM); or (3) (52 total patients) the co-administration of ASTELIN® (azelastine hydrochloride (HCl)) 2 sprays per nostril plus FLONASE® (fluticasone propionate) 2 sprays per nostril (AM), 15 minutes apart, and ASTELIN® (azelastine hydrochloride (HCl)) 2 sprays per nostril plus placebo saline nasal spray, 15 minutes apart, (PM) for a 2-week double-blind treatment period.
The primary efficacy variable was the change from baseline in the Total Nasal Symptom Score (TNSS), which comprised sneezing, itchy nose, runny nose, and nasal congestion (individual symptoms scores were assigned a value between 0 and 3, where 0=no symptoms and 3=severe symptoms). This study was not statistically designed to assess the differences between ASTELIN® and FLONASE®.

[1] = Day 5, Intent-to-Treat Population
[2] = Day 6, Intent-to-Treat Population
[3] = Day 7, Intent-to-Treat Population
[4] = Day 8, Intent-to-Treat Population
[5] = Day 9, Intent-to-Treat Population

CN1CCCC(n2nc(Cc3ccc(Cl)cc3)c3ccccc3c2=O)CC1 (racemic) [Azelastine, (±)-1-(2H)-phthalazinone, 4-[(4-chlorophenyl)methyl]-2-(hexahydro-1-methyl-1H-azepin-4-yl)-, mono-hydrochloride]
Percent Change from Baseline in AM and PM Combined TNSS, Mean [1]: −23.15%
Percent Change from Baseline in AM and PM Combined TNSS, Median [1]: −18.64%
Percent Change from Baseline in PM TNSS, LS Mean [1]: −22.87%
Percent Change from Baseline in PM TNSS, Mean [1]: −22.50%
Percent Change from Baseline in PM TNSS, Median [1]: −13.04%
Change from Baseline in AM and PM Combined TNSS, LS Mean (Day 5, Intent-to-Treat Population, ANCOVA model): −4.46
Change from Baseline in AM and PM Combined TNSS, LS Mean (Day 5, Per-Protocol Population): −4.43
Change from Baseline in AM and PM Combined TNSS, Mean (Day 5, Per-Protocol Population): −4.48
Change from Baseline in AM and PM Combined TNSS, Median (Day 5, Per-Protocol Population): −3.67
Percent Change from Baseline in AM and PM Combined TNSS, LS Mean (Day 5, Per-Protocol Population): −23.17%
Percent Change from Baseline in AM and PM Combined TNSS, Mean (Day 5, Per-Protocol Population): −23.15%
Percent Change from Baseline in AM and PM Combined TNSS, Median (Day 5, Per-Protocol Population): −18.64%
Change from Baseline in AM TNSS, LS Mean [2]: −2.01
Change from Baseline in AM TNSS, Mean [2]: −2.01
Change from Baseline in AM TNSS, Median [2]: −2.00
Change from Baseline in AM and PM Combined TNSS, Mean [2]: −4.44
Change from Baseline in AM and PM Combined TNSS, Median [2]: −3.70
Change from Baseline in PM TNSS, LS Mean [2]: −2.38
Change from Baseline in PM TNSS, Mean [2]: −2.43
Change from Baseline in PM TNSS, Median [2]: −2.00
Percent Change from Baseline in AM TNSS, LS Mean [2]: −21.14%
Percent Change from Baseline in AM TNSS, Mean [2]: −21.35%
Percent Change from Baseline in AM TNSS, Median [2]: −16.67%
Percent Change from Baseline in AM and PM Combined TNSS, LS Mean [2]: −23.15%
Percent Change from Baseline in AM and PM Combined TNSS, Mean [2]: −23.13%
Percent Change from Baseline in AM and PM Combined TNSS, Median [2]: −18.78%
Percent Change from Baseline in PM TNSS, LS Mean [2]: −25.18%
Percent Change from Baseline in PM TNSS, Mean [2]: −24.82%
Percent Change from Baseline in PM TNSS, Median [2]: −20.45%
Change from Baseline in AM and PM Combined TNSS, LS Mean (Day 6, Intent-to-Treat Population, ANCOVA model): −4.40
Change from Baseline in AM and PM Combined TNSS, LS Mean (Day 6, Per-Protocol Population): −4.38
Change from Baseline in AM and PM Combined TNSS, Mean (Day 6, Per-Protocol Population): −4.44
Change from Baseline in AM and PM Combined TNSS, Median (Day 6, Per-Protocol Population): −3.70
Percent Change from Baseline in AM and PM Combined TNSS, LS Mean (Day 6, Per-Protocol Population): −23.16%
Percent Change from Baseline in AM and PM Combined TNSS, Mean (Day 6, Per-Protocol Population): −23.13%
Percent Change from Baseline in AM and PM Combined TNSS, Median (Day 6, Per-Protocol Population): −18.78%
Change from Baseline in AM TNSS, LS Mean [3]: −2.52
Change from Baseline in AM TNSS, Mean [3]: −2.52
Change from Baseline in AM TNSS, Median [3]: −2.20
Change from Baseline in AM and PM Combined TNSS, Mean [3]: −5.09
Change from Baseline in AM and PM Combined TNSS, Median [3]: −4.67
Change from Baseline in PM TNSS, LS Mean [3]: −2.54
Change from Baseline in PM TNSS, Mean [3]: −2.57
Change from Baseline in PM TNSS, Median [3]: −2.25
Percent Change from Baseline in AM TNSS, LS Mean [3]: −26.26%
Percent Change from Baseline in AM TNSS, Mean [3]: −26.58%
Percent Change from Baseline in AM TNSS, Median [3]: −25.00%
Percent Change from Baseline in AM and PM Combined TNSS, LS Mean [3]: −26.40%
Percent Change from Baseline in AM and PM Combined TNSS, Mean [3]: −26.52%
Percent Change from Baseline in AM and PM Combined TNSS, Median [3]: −23.31%
Percent Change from Baseline in PM TNSS, LS Mean [3]: −26.39%
Percent Change from Baseline in PM TNSS, Mean [3]: −26.20%
Percent Change from Baseline in PM TNSS, Median [3]: −23.81%
Change from Baseline in AM and PM Combined TNSS, LS Mean (Day 7, Intent-to-Treat Population, ANCOVA model): −5.05
Change from Baseline in AM and PM Combined TNSS, LS Mean (Day 7, Per-Protocol Population): −5.01
Change from Baseline in AM and PM Combined TNSS, Mean (Day 7, Per-Protocol Population): −5.09
Change from Baseline in AM and PM Combined TNSS, Median (Day 7, Per-Protocol Population): −4.67
Percent Change from Baseline in AM and PM Combined TNSS, LS Mean (Day 7, Per-Protocol Population): −26.32%
Percent Change from Baseline in AM and PM Combined TNSS, Mean (Day 7, Per-Protocol Population): −26.52%
Percent Change from Baseline in AM and PM Combined TNSS, Median (Day 7, Per-Protocol Population): −23.31%
Change from Baseline in AM TNSS, LS Mean [4]: −2.65
Change from Baseline in AM TNSS, Mean [4]: −2.62
Change from Baseline in AM TNSS, Median [4]: −2.50
Change from Baseline in AM and PM Combined TNSS, Mean [4]: −5.38
Change from Baseline in AM and PM Combined TNSS, Median [4]: −5.00
Change from Baseline in PM TNSS, LS Mean [4]: −2.69
Change from Baseline in PM TNSS, Mean [4]: −2.76
Change from Baseline in PM TNSS, Median [4]: −2.75
Percent Change from Baseline in AM TNSS, LS Mean [4]: −27.73%
Percent Change from Baseline in AM TNSS, Mean [4]: −27.83%
Percent Change from Baseline in AM TNSS, Median [4]: −25.00%
Percent Change from Baseline in AM and PM Combined TNSS, LS Mean [4]: −28.22%
Percent Change from Baseline in AM and PM Combined TNSS, Mean [4]: −28.13%
Percent Change from Baseline in AM and PM Combined TNSS, Median [4]: −23.73%
Percent Change from Baseline in PM TNSS, LS Mean [4]: −27.94%
Percent Change from Baseline in PM TNSS, Mean [4]: −28.17%
Percent Change from Baseline in PM TNSS, Median [4]: −27.27%
Change from Baseline in AM and PM Combined TNSS, LS Mean (Day 8, Intent-to-Treat Population, ANCOVA model): −5.37
Change from Baseline in AM and PM Combined TNSS, LS Mean (Day 8, Per-Protocol Population): −5.33
Change from Baseline in AM and PM Combined TNSS, Mean (Day 8, Per-Protocol Population): −5.38
Change from Baseline in AM and PM Combined TNSS, Median (Day 8, Per-Protocol Population): −5.00
Percent Change from Baseline in AM and PM Combined TNSS, LS Mean (Day 8, Per-Protocol Population): −28.14%
Percent Change from Baseline in AM and PM Combined TNSS, Mean (Day 8, Per-Protocol Population): −28.13%
Percent Change from Baseline in AM and PM Combined TNSS, Median (Day 8, Per-Protocol Population): −23.73%
Change from Baseline in AM TNSS, LS Mean [5]: −2.57
Change from Baseline in AM TNSS, Mean [5]: −2.52
